The record followed here is PubChem BioAssay AID1996.

In brackets after ≈: the same amount, converted by molar mass. Bounds are passed on as bounds.

The conditions of this data set: buffer; pH 7.4; 200.0 µM.
A word on the kinetic solubility: it is solubility judged after dilution from a stock solution rather than from solid. Take `NC(=NCCc1ccc(Cl)cc1)NS(=O)(=O)c1ccccc1`: the solubility (kinetic) stood at 47.5 µg/mL (≈ 141 µM). The molecule `Cc1ccccc1NC(=O)C(=O)c1cn(C)c2ccccc12` returned a solubility (kinetic) of less than 0.3 µg/mL. For `O=C1CCCN1CCCNS(=O)(=O)c1cccc(F)c1`, the solubility (kinetic) was greater than 45.1 µg/mL.

Consider `Cc1occc1C(=O)Nc1cccc([N+](=O)[O-])c1C`, for which the solubility (kinetic) worked out at 36 µg/mL (≈ 138 µM). Under `N#C/C(=C\c1ccc[nH]1)C(=O)Nc1ccccc1[N+](=O)[O-]` stands 0.4 µg/mL (≈ 1.42 µM).

`O=S(=O)(NCc1ccco1)c1ccc2ccccc2c1`: the kinetic solubility amounted to 11.3 µg/mL (≈ 39.3 µM). Molecule `CCN1C(=O)c2cccc3c(S(=O)(=O)N4CCNCC4)ccc1c23` came in with a solubility (kinetic) greater than 51.8 µg/mL.

`Cc1cccc(C(=O)NCCCNC(=O)c2ccco2)c1` came in with a kinetic solubility greater than 42.9 µg/mL. For `O=C(Nc1ccc(-c2ccccc2)cc1)c1ccco1`, the solubility (kinetic) was determined as 22.4 µg/mL (≈ 85.1 µM).

Take `CCOc1ccccc1OCCCC(=O)Nc1cc(S(=O)(=O)N2CCOCC2)ccc1OC`: the solubility (kinetic) was found to be 11.1 µg/mL (≈ 23.2 µM).

Molecule `O=[N+]([O-])c1ccccc1OCc1nc(-c2cccs2)no1` gave a kinetic solubility of 0.9 µg/mL (≈ 2.97 µM). For the molecule `Cc1nnc(SCC(=O)Nc2ccc(S(N)(=O)=O)cc2)n(N)c1=O`, the solubility (kinetic) was greater than 55.6 µg/mL. In turn, `COC(=O)c1cc(C(=O)Cc2ccccc2)c[nH]1` showed a solubility (kinetic) greater than 36.5 µg/mL. In turn, `NC(=O)COC(=O)C1CSC2(c3ccc(F)cc3)CCC(=O)N12` (stereo not drawn) showed a solubility (kinetic) of 49.4 µg/mL (≈ 146 µM). Consider `Cc1c(C(=O)N2c3ccccc3CC2C)oc2ccccc12` (stereo not drawn), for which the kinetic solubility turned out to be 0.7 µg/mL (≈ 2.4 µM). With `Cc1nc2cc(Cl)c(Cl)cc2n1CCCO`, the solubility (kinetic) was 33.9 µg/mL (≈ 131 µM). For `CC(C)c1nc2ccccc2n1CC(O)COC1CCCCC1` (stereo not drawn) the value was greater than 47.5 µg/mL. Molecule `Cc1c(C)[n+](=O)c(-c2ccc(Br)cc2)c(C)n1[O-]` returned a solubility (kinetic) greater than 46.4 µg/mL. For `CC(=O)N(C)c1ccc(NC(=O)Cc2cccs2)cc1` the value was 42.6 µg/mL (≈ 148 µM); for `Cc1cc(NC(=O)CSc2nc(C)c(C)c(=O)[nH]2)no1`, greater than 44.1 µg/mL; for `CC1(C(=O)N2CCN(C(=O)c3ccco3)CC2)CC1(Br)Br` (stereo not drawn), greater than 63 µg/mL. Molecule `CSC(=Nc1ccccc1)C(C#N)c1nc2ccccc2[nH]1` (stereo not drawn) yielded a solubility (kinetic) of 0.3 µg/mL (≈ 0.979 µM). For the molecule `O=C(NCc1ccccc1)c1ccc[nH+]c1.[Cl-]`, the kinetic solubility was greater than 37.3 µg/mL.

`CC(C)(O)C(=O)NNC(=S)NCc1ccco1`: the solubility (kinetic) is greater than 38.6 µg/mL. For `CCCNC(=O)c1cccc(Br)c1`, the kinetic solubility was greater than 36.3 µg/mL. The molecule `Cc1noc(C)c1C(=O)OC(C)C(=O)N(C)c1ccccc1` (stereo not drawn) came in with a kinetic solubility greater than 45.3 µg/mL.

For the molecule `Cl.O=C(O)CN1CCCCC1`, the solubility (kinetic) came to 23.8 µg/mL. In turn, `COc1ccc(CNC(=O)CCn2c(C)csc2=O)cc1` showed a solubility (kinetic) greater than 46 µg/mL. `CCOc1ccc(Oc2ccccc2NC(=O)CCNC(C)=O)cc1` displayed a kinetic solubility greater than 51.4 µg/mL.

For `O=[N+]([O-])c1ccc(NS(=O)(=O)c2cccc3cccnc23)cc1`, the solubility (kinetic) came to 1.9 µg/mL (≈ 5.77 µM). In turn, `COc1ccc(CCNC(=O)C2(c3ccccc3)CC2)cc1` registered a solubility (kinetic) of 43.8 µg/mL (≈ 148 µM). The molecule `O=C(Nc1ccc(C(=O)c2ccc(C(=O)O)c(C(=O)O)c2)cc1)c1ccccc1` showed a solubility (kinetic) of 57.4 µg/mL (≈ 147 µM). The molecule `Cc1[nH]nc(SCC(=O)N2CCOCC2)c1[N+](=O)[O-]` yielded a solubility (kinetic) greater than 42.9 µg/mL. On to `CSc1ncccc1C(=O)OCC(=O)N1CC2(C)CC1CC(C)(C)C2` (stereo not drawn), for which the solubility (kinetic) is greater than 54.4 µg/mL.

Take `O=C(/C=C/c1ccc(S(=O)(=O)N2CCOCC2)cc1)Nc1ccc(F)c(F)c1F`: the solubility (kinetic) was 6.9 µg/mL (≈ 16.2 µM). The molecule `COc1ccc(NC(=O)CN2C(=O)NC(C)(c3ccc4c(c3)OCO4)C2=O)cc1S(N)(=O)=O` (stereo not drawn) yielded a kinetic solubility of 66.9 µg/mL (≈ 140 µM). The molecule `CC(=O)N1CCN(c2nnc(-c3ccc(C)cc3)c3ccccc23)CC1` registered a solubility (kinetic) greater than 52 µg/mL.

In turn, `CC(C)CNC(=O)c1cccc2c1-c1ccccc1C2=O` registered a solubility (kinetic) of 2.5 µg/mL (≈ 8.95 µM).

`O=C1CCCc2ccccc2N1Cc1ccc(F)cc1`: the kinetic solubility stood at 30 µg/mL (≈ 111 µM). The molecule `O=C1NC(=O)C(c2cccs2)(c2cccs2)N1` returned a kinetic solubility greater than 39.6 µg/mL. `CCOc1ccc(S(=O)(=O)NCc2cccnc2)cc1C(C)C` registered a kinetic solubility greater than 50.2 µg/mL.

`CC(C)CN=CC1=C(O)c2ccccc2C1=O` registered a kinetic solubility of 29.5 µg/mL (≈ 129 µM). Regarding `O=C1CC(c2ccccc2)CC2=C1C=Nc1ccccc1N2` (stereo not drawn), the solubility (kinetic) turned out to be 37 µg/mL (≈ 128 µM). For `COc1ccc(CNC(=O)Nc2cc(C)cc(C)c2)cc1` the value was 0.8 µg/mL (≈ 2.81 µM); for `COc1ccc(CC(=O)OCC(=O)N2CCCC(C)C2)cc1` (stereo not drawn), greater than 45.8 µg/mL; for `CCN(c1ccccc1)S(=O)(=O)c1ccc(C(=O)N2CCOCC2)cc1`, greater than 56.2 µg/mL. In the case of `CC1=C([N+](=O)[O-])C(c2ccccc2C(F)(F)F)NC(=O)N1C` (stereo not drawn), the kinetic solubility is greater than 47.3 µg/mL. The molecule `Cc1c(CCOC(=O)c2ccc(Cl)cc2Cl)sc[n+]1CC(=O)c1ccc(Br)cc1.[Br-]` returned a kinetic solubility of 40.6 µg/mL. For `COc1ccc(-c2nnc(SCC(=O)N(C)C3CCS(=O)(=O)C3)n2C(C)C)cc1` (stereo not drawn), the kinetic solubility was greater than 65.8 µg/mL. Turning to `Nn1c(SCC(=O)NC2CCCCCC2)nnc1C(F)(F)F`, the solubility (kinetic) is greater than 50.6 µg/mL. Under `O=C(COC(=O)c1ccccn1)Nc1cccc2ccccc12` stands greater than 45.9 µg/mL; under `CC(=O)Nc1nc2ccccc2n1Cc1ccc(C)cc1`, 8.1 µg/mL (≈ 29 µM); under `CCC1(c2ccc(-c3ccccc3)cc2)C(=O)NC(=O)NC1=O`, 4.6 µg/mL (≈ 14.9 µM).

With `COc1ccccc1CNc1nc(C)c(C(=O)N(C)C)s1`, the solubility (kinetic) was greater than 45.8 µg/mL. For `N=C(N)N1CCN(Cc2ccccc2)CC1.O=S(=O)(O)O` the value was 6.7 µg/mL; for `COc1cc(N2CCOCC2)ccc1C=C(C#N)C#N`, 0.7 µg/mL (≈ 2.6 µM); for `CCCC(=O)N/C(N)=N/c1nc(C)c2cc(C)ccc2n1`, 8.5 µg/mL (≈ 29.8 µM).

With `COc1cc(NC(=O)Nc2cccc(Cl)c2)c(C(=O)O)cc1OC`, the kinetic solubility was greater than 52.6 µg/mL.

As to `COC(=O)c1cc(C(=O)OC)n(Cc2ccc(C)cc2)c1C`, the solubility (kinetic) was determined as 28.9 µg/mL (≈ 95.9 µM). Molecule `Nc1nc(Cl)c(C=O)c(N2CCCCC2)n1` showed a kinetic solubility of 34.6 µg/mL (≈ 144 µM). For the molecule `CC(C)c1ccccc1-n1cc[nH]c1=S`, the solubility (kinetic) was greater than 32.7 µg/mL. Molecule `OC1(c2ccccc2)Cc2cccc[n+]2C1c1ccccc1.[Br-]` (stereo not drawn) displayed a solubility (kinetic) greater than 55.2 µg/mL.

The molecule `CC(=O)Nc1ccc(C(=O)OCC(=O)N(C)C2CCCCC2)cc1` yielded a kinetic solubility of 36 µg/mL (≈ 108 µM).

As to `Cc1ccc(NC(=O)/C(Cl)=C\c2ccccc2)cc1`, the solubility (kinetic) worked out at 1.4 µg/mL (≈ 5.15 µM).

Regarding `Cc1ccc(-c2ccc(CCC(=O)O)n2-c2cccc(C(=O)O)c2)cc1`, the kinetic solubility turned out to be 50.4 µg/mL (≈ 144 µM). As for `CC(=O)OCC[N+](C)(C)C.[Cl-]`, the solubility (kinetic) was greater than 27.2 µg/mL. For `Cc1onc(-c2c(F)cccc2Cl)c1C(=O)c1ccccc1O`, the solubility (kinetic) was 2.6 µg/mL (≈ 7.84 µM). Turning to `C=Cc1ccc(N=Cc2c(O)ccc3ccccc23)cc1`, the solubility (kinetic) is 0.9 µg/mL (≈ 3.29 µM). `CCCOc1ccc(/C=C2/C(=O)ON=C2C)cc1OCC` displayed a solubility (kinetic) of 36.8 µg/mL (≈ 127 µM). `O=C(O)c1ccc(S(=O)(=O)N2CCCC2)cc1` had a kinetic solubility of 37.6 µg/mL (≈ 147 µM). In the case of `O=c1[nH]c(C(F)(F)F)nc2ccc3ccccc3c12`, the kinetic solubility is greater than 39.6 µg/mL. In turn, `Cc1nc(CNS(=O)(=O)c2cc([N+](=O)[O-])ccc2C)cs1` came in with a solubility (kinetic) of 10.3 µg/mL (≈ 31.5 µM).

For `CC(=O)C1C(c2ccc(Cl)cc2)c2c(noc2C)CC1(C)O` (stereo not drawn), the kinetic solubility was greater than 48 µg/mL. As for `CCN(Cc1ccncc1)Cc1ccc(OC)cc1OC.O=C(O)C(=O)O`, the kinetic solubility worked out at 43.5 µg/mL. Molecule `CC1CCCN(C(=O)COC(=O)Cc2ccc(Cl)cc2)C1` (stereo not drawn) returned a solubility (kinetic) of 29.8 µg/mL (≈ 96.2 µM). As for `CC1CCCCC1NC(=O)CNC(=O)c1ccco1` (stereo not drawn), the kinetic solubility was determined as 37.2 µg/mL (≈ 141 µM). `Nc1nc(NCCc2ccccc2)nc(NCc2ccccc2)c1[N+](=O)[O-]`: the kinetic solubility came out at 0.2 µg/mL (≈ 0.549 µM). Take `Cc1ccc(S(=O)(=O)NCc2cn3ccccc3n2)c(C)c1`: the kinetic solubility came to 8.9 µg/mL (≈ 28.2 µM). `O=C(NC(=O)c1ccc(F)cc1F)Nc1ccc(Cl)cc1` returned a solubility (kinetic) of 2.8 µg/mL (≈ 9.01 µM).

As to `O=C(NCc1ccco1)c1ccc(-c2cccc(Cl)c2)o1`, the solubility (kinetic) came to 1.3 µg/mL (≈ 4.31 µM). Under `CSc1cccc(NC(=S)Nc2ccc(F)cc2)c1` stands 34.5 µg/mL (≈ 118 µM); under `CC(=O)NC(C)(CC(=O)c1ccccc1)c1ccccc1` (stereo not drawn), greater than 42.2 µg/mL. On to `C=C(C)Cc1c(C)c(C#N)c2[nH]c3ccccc3n2c1=O`, for which the kinetic solubility was found to be 2.9 µg/mL (≈ 10.5 µM). Take `O=c1oc(-c2ccc(Br)cc2)nc2ccccc12`: the kinetic solubility was less than 0.6 µg/mL. For `CCCOc1ccc(/C=C/C(=O)N2CCOCC2)cc1`, the solubility (kinetic) was greater than 41.3 µg/mL. Under `CC(C#N)(Cc1ccccc1)Nc1ccccc1` (stereo not drawn) stands 18.8 µg/mL (≈ 79.6 µM). The molecule `Clc1ccc2c(c1)C(N1CCNCC1)=Nc1ccccc1O2` came in with a solubility (kinetic) of 34.4 µg/mL (≈ 110 µM). Regarding `O=C(Nc1c[nH]c(=O)[nH]c1=O)c1ccccc1Br`, the solubility (kinetic) was greater than 46.5 µg/mL.

In turn, `CN(C)c1ccc(S(=O)(=O)N2CCCCC2)cc1NC(=O)C1=COCCO1` returned a kinetic solubility of 12 µg/mL (≈ 30.3 µM). Consider `Cc1csc(NC(=O)c2ccc3nc[nH]c3c2)n1`, for which the kinetic solubility is greater than 38.7 µg/mL. In the case of `CC1CC(C)CN(C(=O)COC(=O)CN2C(=O)c3ccccc3C2=O)C1` (stereo not drawn), the kinetic solubility was greater than 53.8 µg/mL. Molecule `O=C(CN1CCN(C(=O)c2ccco2)CC1)Nc1ccccc1` came in with a kinetic solubility greater than 47 µg/mL.

Molecule `Cc1cccc(S(=O)(=O)N2CCn3cccc3C2C)c1` (stereo not drawn) registered a kinetic solubility greater than 43.6 µg/mL. Turning to `CC(C)CNC(=O)[C@@H]1CSC2c3ccccc3C(=O)N21` (stereo partly drawn), the kinetic solubility is greater than 43.6 µg/mL. `O=C(Nc1ccc2oc(-c3ccncc3)nc2c1)c1ccccc1` showed a kinetic solubility of less than 0.2 µg/mL. In turn, `O=C(COC(=O)c1ccccc1OCc1ccccc1Cl)NC1CCS(=O)(=O)C1` (stereo not drawn) registered a kinetic solubility greater than 65.7 µg/mL.

With `CC(C)Oc1ccc(S(=O)(=O)N2CCOCC2)cc1NC(=O)Cc1ccsc1`, the kinetic solubility was 31.8 µg/mL (≈ 74.9 µM).

The molecule `COc1ccc(NC(=O)c2cc3ccccc3cc2O)cc1` had a solubility (kinetic) of 1.5 µg/mL (≈ 5.11 µM). `O=C(CNC(=O)c1ccccc1)NCC(c1ccco1)N1CCCC1` (stereo not drawn) had a kinetic solubility greater than 51.2 µg/mL.

`COc1ccc(C(=O)OCC(=O)NC2CCCCCCC2)cc1OC`: the solubility (kinetic) was found to be 29 µg/mL (≈ 83 µM). For `O=C1NC(=O)N(c2ccccc2)C1=O`, the solubility (kinetic) is greater than 28.5 µg/mL. `CN(Cc1ccccc1)C(=O)COC(=O)CN1C(=O)c2ccccc2C1=O` showed a solubility (kinetic) greater than 55 µg/mL. `Cc1cccc(-c2noc(CNC(=O)c3ccco3)n2)c1`: the solubility (kinetic) was found to be 42.5 µg/mL (≈ 150 µM).
